The record followed here is BindingDB's records for doi:10.1016/j.bmcl.2003.11.084 (Liaoning Normal University, 2004).

Test [1] in a line: Inhibitory activity against the wheat germ DNA topoisomerase I.
Test [2] can be described thus: Inhibitory activity against the calf thymus DNA topoisomerase I.
Test [3] in a line: Inhibitory activity against the wheat germ DNA topoisomerase I. The source holds these as a separate data set.

`c1coc(-c2cc(-c3cccs3)nc(-c3cccs3)c2)c1` [4-Furan-2-yl-2,6-di-thiophen-2-yl-pyridine]: the IC50 (in general, the midpoint of a concentration-inhibition curve) in test [1] was found to be 50 µM.

`C(=C\c1ccco1)/c1cc(-c2ccco2)cc(-c2cccs2)n1` [4-Furan-2-yl-2-((E)-2-furan-2-yl-vinyl)-6-thiophen-2-yl-pyridine]: the IC50 is 200 µM in test [2] and less than 10 µM in test [3].

With `c1coc(-c2ccnc(-c3cccs3)c2)c1` [4-Furan-2-yl-2-thiophen-2-yl-pyridine], inhibition in test [1] was half-maximal at 400 µM (IC50).
